Test results published in patent US11360080B2, “AhR-ROR-γt complex as a biomarker and therapeutic target for autoimmune disease and IL-17A-associated disease” (NATIONAL HEALTH RESEARCH INSTITUTES, priority 2018, dated 2022).
Counter-ions that a name gives are not always drawn.

Experiments:
[1] = system: LLC/luc cells; assay: LLC/luc metastatic lung cancer mouse model; format: in vivo; conditions: C1 0.556 nmole/g, C2 0.085 nmole/g i.v. every 3 days for 30 days
From the text: (A) The molecular docking of GLK kinase domain structure with C1 (verteporfin). A three-dimensional structure model depicts the binding of C1 to the predicted GLK kinase domain containing phosphorylated Ser-170. The putative binding affinity was −7.4 kcal/mol. (B) The molecular docking of GLK kinase domain structure with C2 (alexidine dihydrochloride). A three-dimensional structure model depicts the binding of C2 to the predicted GLK kinase domain containing phosphorylated Ser-170. The putative binding affinity was −7.0 kcal/mol. (C) Co-immunoprecipitation (co-IP) of Flag-tagged GLK and GFP-fusion GLK using lysates of HEK293T cells co-transfected with Flag-GLK and GFP-GLK plasmids. Cells were treated with C1 (verteporfin) or C2 (alexidine dihydrochloride). (D) Administration of the GLK inhibitor C1 (0.556 nmole/g) or C2 (0.085 nmole/g) every 3 days for 30 days in the LLC/luc metastatic lung cancer mouse model. (E) The luciferase activity in mice treated with C1 (verteporfin), C2 (alexidine dihydrochloride), or vehicle was detected by IVIS Spectrum. (F) Luminescent intensity of photons emitted from LLC/luc cells in the images in (e) was quantified. (G) Representative immunohistochemistry of H&E in lung tissues from mice treated with C1 (verteporfin), C2, or vehicle. Scale bar, 0.5 cm. (H) In situ PLA assays of the interaction between GLK and IQGAP1 (upper panel) or phosphorylated IQGAP1 Ser-480 (lower panel) in lung tissues from mice treated with C1 (verteporfin), C2 (alexidine dihydrochloride), or vehicle in the LLC/luc metastatic lung cancer mouse model. Original magnification, ×40. We studied whether GLK inhibitors also suppress cancer cell migration. […] Moreover, both C1 (verteporfin) and C2 (alexidine dihydrochloride) treatments suppressed tumor growth in the xenograft mouse model using TC-1 lung cancer cells (FIG. 15). To study whether GLK deficiency results in a reduction of lung cancer metastasis, we used a metastatic Lewis lung carcinoma (LLC) mouse model by tail vein injection of luciferase-expressing LLC (LLC/luc) cells. We identified two GLK inhibitors (verteporfin and alexidine dihydrochloride)) using cell-based assays and in vitro kinase assays. […] The dimerization of Flag-tagged GLK protein and GFP-GLK fusion protein was indeed blocked by the C1 (verteporfin) treatment (FIG. 16C). We treated the LLC/luc cells-containing mice with the GLK inhibitor C1 (verteporfin) or C2 (alexidine dihydrochloride) by intravenous injection every 3 days for 30 days (FIG. 16D). The luciferase activity of LLC/luc cells in the mice was detected by In Vivo Imaging System. The excised lungs were weighed and subjected to H&E staining. […] Inhibition of kinase activity of GLK (MAP4K3) or other MAP4Ks was determined by in vitro kinase assays using myelin basic protein (MBP) as a substrate. […]

[2] = biological target: T1, KHS (MAP4K5) (Homo sapiens, UniProt Q9Y4K4); assay: In vitro kinase assay, recombinant kinase domain, MBP as substrate; format: biochemical
T1 construct: Recombinant proteins of kinase domains of various MAP4Ks were used
T1 sequence (Q9Y4K4 20-277 limits assumed, species assumed): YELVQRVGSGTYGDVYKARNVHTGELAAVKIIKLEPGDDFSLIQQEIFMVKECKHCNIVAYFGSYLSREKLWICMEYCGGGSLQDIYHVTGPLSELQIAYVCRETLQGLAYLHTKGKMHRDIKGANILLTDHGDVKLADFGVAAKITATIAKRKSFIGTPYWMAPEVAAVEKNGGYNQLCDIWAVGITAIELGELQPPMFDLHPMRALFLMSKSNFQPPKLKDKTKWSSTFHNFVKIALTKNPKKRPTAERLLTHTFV
Description: (§1) GLK kinase activity was determined by measuring the rate of ADP production in the in vitro kinase reaction using ADP-GLO™ Kinase Assay kit. For the kinase reaction, recombinant proteins of the GLK kinase-domain (1 μg) were incubated with recombinant proteins of kinase-dead PKCθ (K409W; 0.15 μg) plus ATP (0.1 mM) or myelin basic protein (MBP) plus ATP (0.1 mM) in kinase buffer (40 mM Tris-HCl, pH7.5.20 mM MgCl2, 0.1 mg/ml BSA, 10 mM DTT and 0.1 mM Na3VO4) for 30 min at room temperature. We studied whether GLK inhibitors also suppress cancer cell migration. […] Moreover, both C1 (verteporfin) and C2 (alexidine dihydrochloride) treatments suppressed tumor growth in the xenograft mouse model using TC-1 lung cancer cells (FIG. 15). To study whether GLK deficiency results in a reduction of lung cancer metastasis, we used a metastatic Lewis lung carcinoma (LLC) mouse model by tail vein injection of luciferase-expressing LLC (LLC/luc) cells. We identified two GLK inhibitors (verteporfin and alexidine dihydrochloride)) using cell-based assays and in vitro kinase assays. […] The dimerization of Flag-tagged GLK protein and GFP-GLK fusion protein was indeed blocked by the C1 (verteporfin) treatment (FIG. 16C). We treated the LLC/luc cells-containing mice with the GLK inhibitor C1 (verteporfin) or C2 (alexidine dihydrochloride) by intravenous injection every 3 days for 30 days (FIG. 16D). The luciferase activity of LLC/luc cells in the mice was detected by In Vivo Imaging System. The excised lungs were weighed and subjected to H&E staining. The luciferase activity of LLC/luc cells in the lung of injected mice was reduced by the treatment of C1 (verteporfin) or C2 (alexidine dihydrochloride) (FIGS. 16E-F). […] Moreover, the interaction between GLK and IQGAP1 in the lung tissues were inhibited by the treatment of C1 (verteporfin) or C2 (alexidine dihydrochloride) (FIG. 16H, upper panel), and IQGAP1 phosphorylation was in the lung tissues were inhibited (FIG. 16H, lower panel). […] Inhibition of kinase activity of GLK (MAP4K3) or other MAP4Ks was determined by in vitro kinase assays using myelin basic protein (MBP) as a substrate. Recombinant proteins of kinase domains of various MAP4Ks were used. C1, verteporfin: C2, alexidine dihydrochloride.

[3] = biological target: T2, HPK1 (MAP4K1) (Homo sapiens, UniProt Q92918); assay: as above; format: biochemical
T2 construct: Recombinant proteins of kinase domains of various MAP4Ks were used
T2 sequence (Q92918 17-274 limits assumed, species assumed): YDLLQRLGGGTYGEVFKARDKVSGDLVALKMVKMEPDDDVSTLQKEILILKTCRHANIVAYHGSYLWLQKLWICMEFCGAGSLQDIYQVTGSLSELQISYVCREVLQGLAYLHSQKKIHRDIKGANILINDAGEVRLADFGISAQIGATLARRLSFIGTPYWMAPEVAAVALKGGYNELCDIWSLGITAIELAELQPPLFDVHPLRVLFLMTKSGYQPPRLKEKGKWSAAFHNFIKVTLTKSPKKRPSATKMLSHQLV
Description: as §1

[4] = biological target: T3, HGK (MAP4K4) (Homo sapiens, UniProt O95819); assay: as above; format: biochemical
T3 construct: Recombinant proteins of kinase domains of various MAP4Ks were used
T3 sequence (O95819 25-289 limits assumed, species assumed): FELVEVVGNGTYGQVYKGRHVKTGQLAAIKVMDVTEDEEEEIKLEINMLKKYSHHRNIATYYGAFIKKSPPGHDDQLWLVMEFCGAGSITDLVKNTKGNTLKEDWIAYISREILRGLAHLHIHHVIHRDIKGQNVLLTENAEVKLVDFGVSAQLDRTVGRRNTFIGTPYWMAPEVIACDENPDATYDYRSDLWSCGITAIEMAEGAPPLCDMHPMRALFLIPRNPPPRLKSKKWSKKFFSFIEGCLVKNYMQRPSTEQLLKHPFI
Description: as §1

IC50 [2] [nM] | IC50 [3] [nM] | IC50 [4] [nM] | Compound | cancer colony in lung (histology) [1] | luciferase activity of LLC/luc cells in the lung [1]
43.9 | 7.91 | 4.92 | C=Cc1c(C)c2cc3nc(cc4[nH]c(cc5nc(cc1[nH]2)C(C)=C5CCC(=O)O)c(CCC(=O)OC)c4C)[C@@]1(C)C3=CC=C(C(=O)OC)[C@H]1C(=O)OC [C1, verteporfin] | reduction | reduced
18.3 | 6.14 | 21.8 | CCCCC(CC)CNC(=N)NC(=N)NCCCCCCNC(=N)NC(=N)NCC(CC)CCCC (stereo not shown) [C2, alexidine dihydrochloride] | reduction | reduced
